Here are results for 22 compounds from patent US20260265242A1, “FABK INHIBITOR COMPOSITIONS” (The Texas A&M University System, priority 2023, published 2026).

As usually defined, the MIC is the least concentration at which growth counts as inhibited.

Converted amounts (≈) assume the structure as drawn. Bounds are passed on as bounds.

The subject of the first assay is C. difficile strain R20291. The experiment in a line: MIC determination by broth microdilution. It is filed as cell-based.
Details: not given
As to `O=C(NCc1nc(-c2ccc(Br)cc2)c[nH]1)Nc1nc2ccccc2s1` [Compound 6a], the “activity against C. difficile in MIC testing (in words)” value is “inactive”.

Staying with this assay, now noted: Clostridioides difficile, R20291, 24 h, Table 1; BHI broth, 24 h anaerobic, 37° C.; read-out: R20291 MIC.
With `O=C(NCc1nc(-c2ccc(Br)cc2)c[nH]1)Nc1ncc(Sc2ncccn2)s1` [Compound 5b], the MIC fell in the range of 1.56 to 3.12 µg/mL (≈ 3.19 to 6.39 µM).

Turning to `O=C(NCc1nc(-c2ccc(Br)cc2)c[nH]1)Nc1ncc(Sc2ncccc2C(F)(F)F)s1` [Compound 5g], the MIC was determined as 1.56 µg/mL (≈ 2.81 µM).

Turning to `O=C(NCc1nc(-c2ccc(Br)cc2)c[nH]1)Nc1ncc(Sc2ccc3ccccc3n2)s1` [Compound 5h], the MIC is greater than 50 µg/mL.

`O=C(NCc1nc(-c2ccc(Br)cc2)c[nH]1)Nc1ncc(Sc2ccc(Cl)cn2)s1` [Compound 5e]: the MIC was determined as 3.12 µg/mL (≈ 5.98 µM).

The same assay, now with this note: Clostridioides difficile, R20291, 24 h, Table 2; BHI broth, 24 h anaerobic, 37° C.; read-out: R20291 MIC.
`CCOc1ccc2nc(NC(=O)NCc3nc(-c4ccc(Br)cc4)c[nH]3)sc2c1` [Compound 6k]: the MIC came to 12.5 µg/mL (≈ 26.5 µM).

For the compound `O=C(NCc1nc(-c2ccc(Br)cc2)c[nH]1)Nc1nc2ccc(Br)cc2s1` [Compound 6g], the MIC amounted to 50 µg/mL (≈ 98.6 µM).

For the compound `O=C(NCc1nc(-c2ccc(Br)cc2)c[nH]1)Nc1nc2cc(C(F)(F)F)ccc2s1` [Compound 6c], the MIC was 3.12 µg/mL (≈ 6.29 µM).

Still in this assay, the particulars now being: Clostridioides difficile, R20291, 24 h, read-out: R20291 MIC.
Take `O=C(NCc1nc(-c2ccc(Br)cc2)c[nH]1)Nc1ncc(Sc2nc3ccccc3s2)s1` [Compound 5i]: the MIC was greater than 50 µg/mL.

Consider `CN[C@H](CC(C)C)C(=O)N[C@H]1C(=O)N[C@@H](CC(N)=O)C(=O)N[C@H]2C(=O)N[C@H]3C(=O)N[C@H](C(=O)N[C@H](C(=O)O)c4cc(O)cc(O)c4-c4cc3ccc4O)[C@H](O)c3ccc(c(Cl)c3)Oc3cc2cc(c3O[C@@H]2O[C@H](CO)[C@@H](O)[C@H](O)[C@H]2O[C@H]2C[C@](C)(N)[C@H](O)[C@H](C)O2)Oc2ccc(cc2Cl)[C@H]1O` [Vancomycin, reference compound], for which the MIC fell in the range of 0.39 to 0.78 µg/mL (≈ 0.269 to 0.538 µM).

Regarding `O=C(NCc1nc(-c2ccc(Br)cc2)c[nH]1)Nc1nc2ccccc2s1` [Compound 6a], the MIC was greater than 50 µg/mL.

For the compound `O=C(NCc1nc(-c2ccc(Br)cc2)c[nH]1)Nc1ncc(Sc2ccccc2)s1` [Compound 5c], the MIC was in the range of 1.56 to 3.12 µg/mL (≈ 3.21 to 6.41 µM).

As to `O=C(NCc1nc(-c2ccc(Br)cc2)c[nH]1)Nc1ncc(Sc2ccc(Br)cc2)s1` [Compound 5d], the MIC was 25 µg/mL (≈ 44.2 µM).

Staying with this assay, now noted: Clostridioides difficile, R20291, Table 3; read-out: R20291 MIC.
For the compound `O=C(NCc1nc(-c2ccccc2)n[nH]1)Nc1ncc(Sc2ccccn2)s1` [Compound 8a], the MIC was greater than 50 µg/mL.

As to `O=C(NCc1nc2ccccc2c(=O)[nH]1)Nc1ncc(Sc2ccccn2)s1` [Compound 8c], the MIC is greater than 50 µg/mL.

Still in this assay, the particulars now being: Clostridioides difficile, R20291, running text; read-out: MIC (anti-C. difficile activity).
For `O=C(NCc1nc(-c2ccc(Br)cc2)c[nH]1)Nc1nc2c(F)cc(F)cc2s1` [Compound 6j], the MIC turned out to be 12.5 µg/mL (≈ 26.9 µM).

Turning to `S=C(NCc1nc(-c2ccc(Br)cc2)c[nH]1)Nc1ncc(Sc2ccccn2)s1` [Compound 7a], the MIC amounted to 0.39 µg/mL (≈ 0.775 µM).

`O=C(NCc1nc(-c2ccc(Br)cc2)c[nH]1)Nc1nc2ccc(OC(F)(F)F)cc2s1` [Compound 6l]: the MIC is 12.5 to 25 µg/mL (≈ 24.4 to 48.8 µM).

Regarding `CS(=O)(=O)c1ccc2nc(NC(=O)NCc3nc(-c4ccc(Br)cc4)c[nH]3)sc2c1` [Compound 6f], the MIC is greater than 100 µg/mL.

As for `O=C(NCc1nc(-c2ccc(Br)cc2)c[nH]1)Nc1nc2ccc(Cl)cc2s1` [Compound 6h], the MIC was 6.25 µg/mL (≈ 13.5 µM).

Still in this assay, the particulars now being: Table 2; BHI broth, 24 h anaerobic, 37° C.
As to `CN[C@H](CC(C)C)C(=O)N[C@H]1C(=O)N[C@@H](CC(N)=O)C(=O)N[C@H]2C(=O)N[C@H]3C(=O)N[C@H](C(=O)N[C@H](C(=O)O)c4cc(O)cc(O)c4-c4cc3ccc4O)[C@H](O)c3ccc(c(Cl)c3)Oc3cc2cc(c3O[C@@H]2O[C@H](CO)[C@@H](O)[C@H](O)[C@H]2O[C@H]2C[C@](C)(N)[C@H](O)[C@H](C)O2)Oc2ccc(cc2Cl)[C@H]1O` [Vancomycin, reference compound], the “R20291 MIC” value is 0.39 to 0.78 µg/mL.

Turning to `O=C(NCc1nc(-c2ccc(Br)cc2)c[nH]1)Nc1nc2c(C(F)(F)F)cccc2s1` [Compound 6e], the “R20291 MIC” value came out at 12.5 µg/mL.

As for `O=C(NCc1nc(-c2ccc(Br)cc2)c[nH]1)Nc1nc2c(C(F)(F)F)cccc2s1` [Compound 6b], the “R20291 MIC” value was 1.56 µg/mL.

Staying with this assay, now noted: unit printed as g/mL.
Consider `O=C(NCc1nc(-c2ccc(Br)cc2)c[nH]1)Nc1ncc(Sc2ccc(C(F)(F)F)cn2)s1` [Compound 5f], for which the MIC (anti-C. difficile activity) is 3.12 µg/mL (≈ 5.62 µM).

`O=C(NCc1nc(-c2ccc(Br)cc2)c[nH]1)Nc1ncc(Sc2ccc(Cl)cn2)s1` [Compound 5e] displayed an MIC (anti-C. difficile activity) of 3.12 µg/mL (≈ 5.98 µM).
